The SangsterLogP compilation

Assay: not given
Settings: pH 2.0

SMILES	logD
COc1ccc(NC(=O)[C@H](OC(=O)CNC(=O)c2ccc(C)s2)c2ccccc2)cc1Cl	4.54

Same assay, conditions: pH 5.0

SMILES	logD
Cc1ccc(N2C(=O)N(c3cccc(Cl)c3)[C@@H]3CS(=O)(=O)C[C@@H]32)cc1	3.56
O=C1/C(=C/c2ccsc2)SC(=S)N1c1cccc(C(F)(F)F)c1	5.8
FC(F)Oc1ccc(NC(=S)NC[C@@H]2CCCO2)cc1Cl	3.74
COc1ccccc1NC(=O)C1=C(C)NC(SCC(=O)Nc2ccc(C)c(Cl)c2)=C(C#N)[C@@H]1c1ccco1	6.27
Cc1ccc(N2C(=O)c3ccccc3N[C@H]2c2cccc([N+](=O)[O-])c2)cc1	4.18
COc1ccc(C(=O)/C=C/Nc2ccc(Cl)c(C(F)(F)F)c2)cc1OC	5.31
CC(C)CN1C(=O)/C(=C/[C@@H]2CC=CCC2)SC1=S	6.66
COc1cc2c(cc1OC)[C@@]1(C)N(CC2)C(=O)OC12CCCCC2	3.47
Cc1cc(C(=O)CN2C(=O)[C@@H]3CC=CC[C@H]3C2=O)c(C)n1Cc1ccc2c(c1)OCO2	4.38
Cc1noc(C)c1C(=O)O[C@@H](C)C(=O)Nc1ccc2c(c1)OCCO2	2.78
O=C(Nc1cccc(Cl)c1)c1cc2n(n1)[C@H](C(F)(F)F)C[C@@H](c1ccccc1)N2	5.92

Same assay, conditions: pH 6.5

SMILES	logD
NC(=O)C(C(=O)/C=C/c1ccc(Cl)cc1)=C1SCS1	3.64
COc1ccc(N2C(=S)N=C(N[C@@H]([C@@H](Oc3ccc(Cl)cc3)n3cncn3)C(C)(C)C)C2(C)C)cc1	5.56

Same assay, conditions: pH 7.3

SMILES	logD
CC1=NC2=C(C(=O)CCC2)[C@H](c2ccc(Cl)cc2)C1C(=O)OCCc1ccccc1 (stereo partly drawn)	5.48

Same assay, conditions: pH 8.0

SMILES	logD
OC[C@H]1CCCN(c2ncnc3scc(-c4ccccc4)c23)C1	3.9
COC(=O)CSc1nc(NCC(C)C)nc(N2CCOCC2)n1	3.75
COC(=O)c1c(N[C@@H](NC(C)=O)C(Cl)(Cl)Cl)sc2c1CCCC2	5.04

Same assay, conditions: pH 10.0

SMILES	logD
C[C@H]1CN(C(=O)c2cc(-c3ccc4c(c3)OCO4)nc3ccccc23)C[C@H](C)O1	4.19
C[C@H]1C[C@H](C)CN(C(=O)CSc2nnc(-c3ccccc3)n2C)C1	3.68
CCCCSC1=C(C#N)[C@H](c2cccc([N+](=O)[O-])c2)C(C(C)=O)=C(C)N1	4.44
C(=N\n1cnnc1)/c1ccc(-n2nc(-c3ccccc3)cc2-c2ccccc2)cc1	5.58
CCO/C(O)=C/c1nc2nonc2nc1O	1.61

Same assay, conditions: pH 10.5

SMILES	logD
CN1C(=O)N(C)C2(c3ccccc3)Nn3c(s/c(=C\c4ccc(Br)cc4)c3=O)=NC12c1ccccc1 (stereo not drawn)	5.72
COc1ccc(N2C(=O)C[C@@H](Sc3nc(C)cc(C)n3)C2=O)cc1OC	2.95
COc1ccc([C@H]2C(C#N)=C(N)N(c3ccccc3C(F)(F)F)C3=C2C(=O)CCC3)cc1CSc1ccccn1	5.45
COC(=O)c1c(C)sc2c1OC(N)=C(C#N)[C@@H]2c1cc(Br)cs1	5.06

Assay: method code SF, from DOI: 10.1016/j.ejps.2012.10.019, PMID: 23131797
Settings: pH 2.0

SMILES	logD
Cc1ccc(C(=O)NCCc2ccc3c(c2)OCCO3)cc1[N+](=O)[O-]	3.28
CC(C)=CC(=O)OCC(=O)Nc1ccc(S(=O)(=O)N(C)C)cc1	2.26
O=C(/C=C/c1ccc2c(c1)OCO2)Nc1ccc2c(c1)OCO2	3.72
Cc1cccc(C)c1NC(=O)Cn1cc(C(=O)C2CC2)c2ccccc21	3.47
Cc1cccc(C)c1NC(=O)CNC(=O)C1CCN(S(=O)(=O)c2cccc(Cl)c2Cl)CC1	3.41
Cc1ccc(OCCC(=O)N2CCN(S(=O)(=O)c3cccs3)CC2)cc1	2.98

Same assay, conditions: pH 5.0

SMILES	logD
CCCCC(=O)Nc1ccc(F)c([N+](=O)[O-])c1	3.04
CCCCCC(=O)NC1(CCC)CCCC1	4.28
Cc1ccc(NC(=O)CSc2nnc(Cc3ccccc3)o2)cc1Cl	4.85
Cc1ccc(S(=O)(=O)N(CCO)Cc2ccccc2)cc1	3.69
O=C1c2ccccc2C(=O)N1c1ccccc1S(=O)C(F)(F)F (stereo not drawn)	3.3
N#CCc1nc(-c2ccc3c(c2)OCCCO3)cs1	2.68
COC(=O)c1ccc(C)c(NC(=O)Cc2coc3cc4c(cc23)CCC4)c1	4.78
COc1c(Cl)ccc(Cl)c1C(=O)Nc1ccc(C)cc1C	4
Cc1ccc(C)c(S(=O)(=O)N(C)c2ccc(OC(=O)c3ccc4c(c3)OCO4)cc2)c1	5.87
COC(=O)/C=C/CN1C(=O)c2ccccc2C1=O	2.46
CCCn1c(=O)c(Br)cn(-c2ccccc2C)c1=O	2.82
O=[N+]([O-])c1cccc(-c2noc(CC3CCCCC3)n2)c1	5.17
N#CCSc1nc2ccccc2c(=O)n1-c1ccc(OC(F)F)cc1	4.17
COC(=O)c1ccc(Br)c(S(=O)(=O)N2CCCCC2)c1	3.66
O=P(OCC(F)(F)F)(OCC(F)(F)F)N1CCOCC1	2.69
COc1ccccc1Nc1nc(OCC(F)(F)F)nc(OCC(F)(F)F)n1	5.27
COc1cc(C(=O)Nc2cccc(C#N)c2)cc(OC)c1OC	3.44
CC1=CC(C)C(CO)(CO)C(C)C1 (stereo not drawn)	2.93
COc1ccc(CNC(=O)C2CCCC2)cc1	2.6
O=C(COC(=O)c1cccc(N2C(=O)c3ccccc3C2=O)c1)c1ccc(F)cc1	4.68
COc1ccc2c(C)c(C)c(=O)oc2c1C	3.45
NC(=O)c1cc(NC(=O)c2cc(C(F)(F)F)cc(C(F)(F)F)c2)cc(C(N)=O)c1	3.87
FC(F)(F)c1ccc(-n2cc3ccccc3n2)cc1	4.42

SMILES	logD
CCCC(=O)N1CC2(C)CN(C(=O)CCC)CC(C)(C1)C2	2.69
O=C(Cn1cc(C(=O)C(F)(F)F)c2cc(Br)ccc21)N1CCCCCC1	4.62
Cc1ccc(-n2c(=O)c3cc4c(=O)n(-c5ccc(C)c(C)c5)c(=O)c4cc3c2=O)cc1C	4.83
C=CCn1c(C)c(C=C2C(=O)OC3(CCCCC3)OC2=O)c2ccccc21	4.62
COc1cc2c(cc1NC(=O)COC(=O)c1cc(OC)c(OC)cc1[N+](=O)[O-])oc1ccccc12	5.04
O=C(NCCc1ccccc1)c1ccc(Cl)cc1	3.71
Cn1ncc(Br)c1C(=O)N1CCCCCC1	2.63
O=C(Cn1cc(C(F)(F)F)cc(Cl)c1=O)N1CCN(C(=O)c2ccco2)CC1	2.27
CCn1ccc(CN(C)C(=O)c2ccccc2COc2ccc(F)cc2F)n1	4.43
CC(C)NC(=O)COC(=O)c1ccc(S(=O)(=O)N2CCCCCC2)cc1	3.78
Cc1ccc(S(=O)(=O)N2CCCN(S(=O)(=O)c3ccc(C)cc3C)CC2)c(C)c1	5.01
Nn1c(SCC(=O)Nc2ccccc2-c2ccccc2)nnc1-c1ccc(OC(F)F)cc1	4.85
O=C1CCCC2=C1C(c1ccc(OCc3ccccc3F)cc1)C1=C(CCCC1=O)O2	4.92
CCCCOc1ccc(C(=O)Oc2ccc3c(c2)OCO3)cc1OC	4.77
CC(C)NC(=S)N1CCN(S(=O)(=O)c2cccc(C(F)(F)F)c2)CC1	3.9
Cn1ncc(Cl)c1-c1nc(-c2nonc2N)no1	2.77
CN(C)S(=O)(=O)c1ccc(C(=O)OC2CCCCC2)cc1	4.27
CCOc1ccccc1OCC(=O)Nc1ccc2ccccc2c1	4.73
CCCCC(=O)NC1C2CC3CC(C2)CC1C3 (stereo not drawn)	3.8
CC(NS(C)(=O)=O)c1ccccc1 (stereo not drawn)	1.8
CC(=O)c1cc2ccccc2o1	2.15
CN(C(=O)c1c(F)c(F)c(F)c(F)c1F)C(C)(C)C	3.45

Same assay, conditions: pH 6.5

SMILES	logD
CCOc1ccc(CC(=O)C2=C(N3CCCC3)CCCC2=O)cc1OCC	3.3
O=C(CSc1nc2ccccc2c(=O)n1-c1ccc(Cl)cc1)NC1CCCCC1	4.92
COCCn1c(C)cc(C(=O)CSc2ncnc3sc(C)c(C)c23)c1C	4.59
C=CCNC(=O)CSc1nc(C(F)F)cc(-c2cn(C)nc2C)c1C#N	3.74
CC(=O)N1CC(=O)N(CC(=O)N(Cc2ccccc2)c2nc(-c3ccccc3)cs2)C1=S	4.43
O=C(CSc1nnc2c3ccccc3n(Cc3ccccc3)c2n1)OCN1C(=O)c2ccccc2C1=O	4.51
COC(=O)c1c(NC(NC(=O)c2cccnc2)(C(F)(F)F)C(F)(F)F)sc2c1CCCCC2	5.75
CCN(CC)C(=O)c1sc(NC(=O)c2cc(OC)cc(OC)c2)c(C(=O)OC)c1C	5.47

Same assay, conditions: pH 7.0

SMILES	logD
NNc1c(F)c(F)nc(F)c1F	0.86

Same assay, conditions: pH 7.3

SMILES	logD
CCOC(=O)C1CCN(S(=O)(=O)c2nc3nc(C)cc(C)n3n2)CC1	2.71
Cn1c(SCc2cc(F)cc(F)c2)nnc1-c1ccc2nonc2c1	3.68
Nn1c(COc2ccccc2)nnc1SC(F)F	1.85
COc1cccc(OC)c1C(=O)Nc1ccc(N2CCN(C(=O)c3ccccc3C)CC2)cc1	4.16
COC(=O)c1cc(OC)c(OC)cc1NC(=O)CSc1nncn1C	2.78
COc1cccc(-c2ccc3c(N)c(C(=O)Nc4ccc(F)c(F)c4)sc3n2)c1	5.86
CC1CCCC(C)N1C(=O)CSc1nnc(-c2ccco2)n1Cc1ccccc1 (stereo not drawn)	4.49

Same assay, conditions: pH 10.0

SMILES	logD
CC1(C)CC(=O)C2=C(C1)OC(N)=C(C#N)C21CCC2(CC1)OCCO2	3.24

Same assay, conditions: pH 10.5

SMILES	logD
CN(C)c1nc(N)nc(COC(=O)c2ccc(-n3cnnc3)cc2)n1	2.74
Cn1c(=O)c(C(=O)CN2CCSc3ccccc32)c(N)n(Cc2ccccc2)c1=O	4.71
COc1cc(C2C(C#N)=C(N)Oc3cc(C)[nH]c(=O)c32)cc(OC)c1OC (stereo not drawn)	2.55
CCOc1cc(-c2nnc(-c3ccco3)o2)cc(OCC)c1OCC	3.96
Cc1cc(C)n2c(SCc3ccc(C(=O)c4ccccc4)cc3)nnc2n1	4.43
CCOC(=O)c1sc(NCCNc2nc(C)c(C(=O)OCC)s2)nc1C	4.66
Cc1nn(C)cc1-c1cc(C(F)(F)F)n2ncc(C(=O)N(C3CCCCC3)C3CCCCC3)c2n1	5.81
CCOc1ccc(NC(=O)CN(C)C(=O)c2ccc(C)o2)cc1OCC	2.09
COCCn1c(C)cc(C(=O)CSc2nnc3[nH]c4ccccc4n23)c1C	3.45
Cc1cc(C)n(C2=NCCN2S(=O)(=O)c2cc(C(F)(F)F)cc(C(F)(F)F)c2)n1	4.7
O=C(c1cc2ccccc2s1)N1CCCN(c2ccc(C(F)(F)F)cn2)CC1	4.92
COC(=O)CCNc1nc(-c2cccnc2)nc2sc3c(c12)CCCC3	4.69
CCn1cc(C2C3=C(CC(C)(C)CC3=O)N(c3ccc(C)cc3)C3=C2C(=O)CC(C)(C)C3)c(C)n1	5.35
